Source: article PMC9688808, “Discovery of Novel Lin28 Inhibitors to Suppress Cancer Cell Stemness” (Cancers, 2022)

Key:
IGROV1 cells = assay: Real-time qPCR of Let-7d, SOX2, HMGA2 in IGROV1 cells; format: cell-based; conditions: IGROV1 cells (Lin28A-positive), 20 uM, 48 h
Method: The DUNE cell line and DUNE cells with Lin28B knockout by CRISPR (DUNE (KO)) were reported in our previous studies. IGROV1 cells were obtained from Sigma-Aldrich (St. Louis, MO, USA). DUNE and DUNE (KO) cells were cultured in Dulbecco’s Modified Eagle Medium with high Glucose/L-glutamine (DMEM; Hyclone, Logan, UT, USA) and 10% of fetal bovine serum (FBS; Gibico, Waltham, MA, USA). IGROV1 cells were cultured in Roswell Park Memorial Institute 1640 (RPMI-1640; Hyclone) medium with 10% FBS. All the cell lines were incubated in 5% CO2 at 37 °C and were tested for mycoplasma contamination monthly and cell line authentication was tested by short tandem repeat profiling by ATCC.
(§1) There are several standard molecular techniques, including real-time qPCR, flow cytometry, cell proliferation, colony formation, and immunoblotting assays, that have been reported previously by our lab.
Figure 5 Lin28 inhibitors block the Lin28A isoform. (A) EMSA used 10 nM of IR800DyeCWN-labeled Let-7 probe (lane 1), 0.5 uM Lin28A ZKD protein with 10 nM of labeled Let-7 probe (lane 2), or Lin28A ZKD, labeled Let-7 probe and 100× non-labeled competitor probe (lane 3). EMSA used Lin28A ZKD, labeled Let-7 probe, and 100–1200 uM of indicated compounds (lanes 4–10). (B) FP assays were performed by using 10 uM of Lin28A ZKD, 1 nM of FAM-labeled Let-7 probe, and 1 nM–200 uM of compounds. (C) Lin28A-positive IGROV1 cells were treated with 20 uM of the indicated compound for 48 h. Real-time qPCR measured RNA levels of Let-7d, SOX2, and HMGA2. Three biological replicates were performed and all results are presented as mean +/− SD. p-value ≤ 0.05—(*); ≤0.01—(**); ≤0.001—(***).

DUNE cells = assay: FACS analysis of CD44 and CD133 positive cell populations; format: cell-based; conditions: 20 uM, 48 h; for % of CD133+ cells: paired vehicle 60.8–65.4; for % CD44+ cells: paired vehicle 84.7–94.9
Method: as §1
Figure 7 Lin28 inhibitors block CSC phenotypes of cancer cells. (A) FACS analysis using CD44 and CD133 antibodies detected CSC cell populations from DUNE or DUNE (KO) cells treated with either vehicle or 20 uM of Ln7, Ln15, and Ln115 for 48 h. (B) DUNE, DUNE (KO), and IGROV1 cell proliferation were measured in the presence of 20 uM of Ln7, Ln15, and Ln115. (C) Colony formation assays (colonies >[…] were counted) measured the suppressive effects of Ln7, Ln15, and Ln115 at the concentration of 20 uM. p-value ≤ 0.01—(**); ≤0.001—(***).

SMILES | Let-7 microRNA levels (IGROV1 cells) | CD44- and CD133-positive cell populations (DUNE cells) | % of CD133+ cells (DUNE cells) [%] | % CD44+ cells (DUNE cells) [%] | upregulation of Let-7 (IGROV1 cells) [fold]
CCOc1cccc2c1N[C@@H](c1ccc(C(=O)O)cc1)[C@H]1CC=C[C@@H]21 [Li71, reference compound] | upregulated |  |  |  | 
CCc1cc(=O)[nH]c(Nc2cc(Cl)ccc2O)n1 [Ln7] |  | significant reductions | 37.1 ± 4.2 | 61.6 ± 3.2 | 
O=c1[nH]c(Nc2ccccc2O)cs1 [Ln15] |  | significant reductions | 14.7 ± 2.1 | 70.1 ± 4.6 | 10
O=c1cccc(-c2nc3cc(F)c(O)cc3c(=O)[nH]2)[nH]1 [Ln115] |  | significant reductions | 30 ± 4.5 | 54.3 ± 6.0 | 
CC(=O)N(C)c1cccc(-c2ccc3nnc(C)n3n2)c1 [compound 1632, reference compound] | upregulated |  |  |  | 
